Laboratory results published in PMC10584170, “Machine learning-based phenotypic imaging to characterise the targetable biology of Plasmodium falciparum male gametocytes for the development of transmission-blocking antimalarials” (PLOS Pathogens, 2023).
pIC50: −log10 of the molar value. Where two headings read alike, the source gives them in different places.

Legend:
[1] = system: P. falciparum male gametocytes; test: P. falciparum Dual Gamete Formation Assay (PfDGFA), male readout (exflagellation); format: cell-based, Plasmodium falciparum NF54; conditions: for Selectivity Ratio M: HepG2 Tox50 versus male IC50; for inhibition at 2 µM / Average inhibition male (%) / % inhibition male (individual replicates) R1 / % inhibition male (individual replicates) R3 / % inhibition male (individual replicates) R4: 24h preincubation with gametocytes; for pIC50: PfDGFA, 24 h incubation with gametocytes before induction, exflagellation readout, read-out: Male IC50; for HitlevelM: number of replicates with >50% inhibition in the male readout
Summary of the method: (§1)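 Read-outs are automated image counts of exflagellation centres (brightfield, 10 frames over 1 s) and Pfs25-positive female gametes (Cy3 fluorescence).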

[2] = system: P. falciparum female gametocytes; test: P. falciparum Dual Gamete Formation Assay (PfDGFA), female readout (Pfs25-positive female gametes); format: cell-based, Plasmodium falciparum NF54; conditions: for Selectivity ratio F: HepG2 Tox50 versus female IC50; for inhibition at 2 µM / Average inhibition female (%) / % inhibition female (individual replicates) R1 / % inhibition female (individual replicates) R3 / % inhibition female (individual replicates) R4: 24h preincubation with gametocytes; for pIC50: PfDGFA, 24 h incubation with gametocytes before induction, female gamete readout, read-out: Female IC50; for HitlevelF: number of replicates with >50% inhibition in the female readout
Summary of the method: as §1

[3] = system: HepG2 cells; test: HepG2 cytotoxicity counter-screen; conditions: cytotoxic activity against HepG2 cells
[4] = Plasmodium falciparum, 2µM, average of replicates, read-out: Average inhibition male (%)
[5] = Plasmodium falciparum, 2µM, replicate R1, read-out: % inhibition male (individual replicates) R1
[6] = Plasmodium falciparum, 2µM, replicate R2, read-out: % inhibition male (individual replicates) R2
[7] = Plasmodium falciparum, 2µM, replicate R3, read-out: % inhibition male (individual replicates) R3
[8] = Plasmodium falciparum, 2µM, replicate R4, read-out: % inhibition male (individual replicates) R4
[9] = Plasmodium falciparum, 2µM, average of replicates, read-out: Average inhibition female (%)
[10] = Plasmodium falciparum, 2µM, replicate R1, read-out: % inhibition female (individual replicates) R1
[11] = Plasmodium falciparum, 2µM, replicate R2, read-out: % inhibition female (individual replicates) R2
[12] = Plasmodium falciparum, 2µM, replicate R3, read-out: % inhibition female (individual replicates) R3
[13] = Plasmodium falciparum, 2µM, replicate R4, read-out: % inhibition female (individual replicates) R4
[14] = Plasmodium falciparum, PfDGFA at 2µM, average of replicates, read-out: Average inhibition male (%)
[15] = Plasmodium falciparum, PfDGFA at 2µM, replicate R1, read-out: % inhibition male (individual replicates) R1
[16] = Plasmodium falciparum, PfDGFA at 2µM, replicate R2, read-out: % inhibition male (individual replicates) R2
[17] = Plasmodium falciparum, PfDGFA at 2µM, replicate R3, read-out: % inhibition male (individual replicates) R3
[18] = Plasmodium falciparum, PfDGFA at 2µM, replicate R4, read-out: % inhibition male (individual replicates) R4
[19] = Plasmodium falciparum, PfDGFA at 2µM, average of replicates, read-out: Average inhibition female (%)
[20] = Plasmodium falciparum, PfDGFA at 2µM, replicate R1, read-out: % inhibition female (individual replicates) R1
[21] = Plasmodium falciparum, PfDGFA at 2µM, replicate R2, read-out: % inhibition female (individual replicates) R2
[22] = Plasmodium falciparum, PfDGFA at 2µM, replicate R3, read-out: % inhibition female (individual replicates) R3
[23] = Plasmodium falciparum, PfDGFA at 2µM, replicate R4, read-out: % inhibition female (individual replicates) R4
[24] = PfDGFA at 2µM, average of replicates

| Compound | pIC50 ([1]; Plasmodium falciparum) | pIC50 ([2]; Plasmodium falciparum) | pIC50 [1] | Selectivity Ratio M [1] | inhibition at 2 µM [1, 4] [%] | inhibition at 2 µM [1, 5] [%] | inhibition at 2 µM [1, 6] [%] | inhibition at 2 µM [1, 7] [%] | inhibition at 2 µM [1, 8] [%] | Selectivity ratio F [2] | inhibition at 2 µM [2, 9] [%] | inhibition at 2 µM [2, 10] [%] | inhibition at 2 µM [2, 11] [%] | inhibition at 2 µM [2, 12] [%] | inhibition at 2 µM [2, 13] [%] | Tox50 [3] [µM] | HitlevelM ([1]; 2µM) | HitlevelF ([2]; 2µM) | further results |
| --- | --- | --- | --- | --- | --- | --- | --- | --- | --- | --- | --- | --- | --- | --- | --- | --- | --- | --- | --- |
| COc1ccc(Nc2ncc(OC)c(Nc3ccccc3C(N)=O)n2)cc1N1CCN(C)CC1.O=CO [TCMDC-134149] | 6.74 | 5.10 |  | 28.52 | 94.7 | 95.1 | 101 | 85.5 | 97.6 | 0.66 | 13.9 | 17.6 | 16.3 | 5.9 | 15.7 | 5.24 |  |  |  |
| COc1ccc(Nc2ncc(Cl)c(Nc3cccnc3C(N)=O)n2)cc1N1CCN(C)CC1.Cl [TCMDC-134163] | 6.40 | < 5.00 |  | 7.51 |  |  |  |  |  | 0.3 |  |  |  |  |  | 2.98 | 4 | 0 | inhibition at 2 µM [1, 14]: 79.9%; inhibition at 2 µM [1, 15]: 77.1%; inhibition at 2 µM [1, 16]: 88.9%; inhibition at 2 µM [1, 17]: 73.4%; inhibition at 2 µM [1, 18]: 80.2%; inhibition at 2 µM [2, 19]: -4.7%; inhibition at 2 µM [2, 20]: 1.7%; inhibition at 2 µM [2, 21]: -23.4%; inhibition at 2 µM [2, 22]: -4.2%; inhibition at 2 µM [2, 23]: 7% |
| CN1CCN(c2ccc(Nc3ncc(Cl)c(Nc4cccnc4C(N)=O)n3)cc2)CC1.Cl [TCMDC-134164] | 6.34 | 5.26 |  | 13.8 | 93.6 | 95.4 | 93.6 | 90.2 | 95.2 | 1.15 | -2.7 | -3.8 | 5.1 | -16.9 | 4.9 | 6.29 |  |  |  |
| Cc1ccc(C(C(=O)Nc2ccc(N3CCNCC3)c(Cl)c2)c2ccccc2)cc1 (stereo not shown) [TCMDC-134292] | 6.38 | < 5.00 |  | 27.18 | 93.6 | 96.8 | 85.1 | 98.4 | 94.1 | 1.13 | 61.9 | 54.2 | 48.2 | 79.2 | 66 | 11.32 |  |  |  |
| COc1cccc(OC)c1CN1CCC(N(C)CCCCCCCCCN2CCC(OC(=O)Nc3ccccc3-c3ccccc3)CC2)CC1 [TCMDC-134690] |  |  | 5.81 | 1.95 |  |  |  |  |  | 0.8 |  |  |  |  |  | 3.03 |  |  | Average inhibition male (%) ([1]; 2µM, average of replicates): 94.5%; % inhibition male (individual replicates) R1 ([1]; 2µM, replicate R1): 97.5%; % inhibition male (individual replicates) R3 ([1]; 2µM, replicate R3): 83.2%; % inhibition male (individual replicates) R4 ([1]; 2µM, replicate R4): 100.9%; Average inhibition female (%) ([2]; 2µM, average of replicates): 49.9%; % inhibition female (individual replicates) R1 ([2]; 2µM, replicate R1): 26.2%; % inhibition female (individual replicates) R3 ([2]; 2µM, replicate R3): 20.7%; % inhibition female (individual replicates) R4 ([2]; 2µM, replicate R4): 73.0%; pIC50 [2]: 5.42 |
| Cc1cccc(Nc2nc(N[C@@H]3CCCNC3)nc3cc[nH]c(=O)c23)c1.O=C(O)C(F)(F)F [TCMDC-134835] | 6.68 | 5.11 |  | 21.63 | 97.3 | 96.8 | 100 |  | 94.9 | 0.58 | -0.142 | 6.3 | 4.6 | -8.3 | -3.2 | 4.45 |  |  |  |

Second part, led by results:

| pIC50 ([1]; Plasmodium falciparum) | pIC50 ([2]; Plasmodium falciparum) | pIC50 [1] | Compound | Selectivity Ratio M [1] | inhibition at 2 µM [1, 4] [%] | inhibition at 2 µM [1, 5] [%] | inhibition at 2 µM [1, 6] [%] | inhibition at 2 µM [1, 7] [%] | inhibition at 2 µM [1, 8] [%] | Selectivity ratio F [2] | inhibition at 2 µM [2, 9] [%] | inhibition at 2 µM [2, 10] [%] | inhibition at 2 µM [2, 11] [%] | inhibition at 2 µM [2, 12] [%] | inhibition at 2 µM [2, 13] [%] | Tox50 [3] [µM] | HitlevelM ([1]; 2µM) | HitlevelF ([2]; 2µM) | further results |
| --- | --- | --- | --- | --- | --- | --- | --- | --- | --- | --- | --- | --- | --- | --- | --- | --- | --- | --- | --- |
|  |  | 5.74 | COc1c(C2CCN(CCCCNC(=O)c3ccc(-c4ccc(Cl)cc4)c(OCCN(C)C)c3)CC2)ccc2c1CCCC2 [TCMDC-134371] | 3.17 |  |  |  |  |  | 0.69 |  |  |  |  |  | 5.71 |  |  | Average inhibition male (%) ([1]; 2µM, average of replicates): 98.8%; % inhibition male (individual replicates) R1 ([1]; 2µM, replicate R1): 97.3%; % inhibition male (individual replicates) R3 ([1]; 2µM, replicate R3): 99.5%; % inhibition male (individual replicates) R4 ([1]; 2µM, replicate R4): 100.2%; Average inhibition female (%) ([2]; 2µM, average of replicates): 90.2%; % inhibition female (individual replicates) R1 ([2]; 2µM, replicate R1): 90.8%; % inhibition female (individual replicates) R3 ([2]; 2µM, replicate R3): 96.4%; % inhibition female (individual replicates) R4 ([2]; 2µM, replicate R4): 89.7%; pIC50 [2]: 5.08 |
| 5.86 | < 5.00 |  | COc1cc2c(cc1S(=O)(=O)c1ccc(COc3ccc(C(F)(F)F)cc3)cc1)CNCC2.Cl [TCMDC-134479] | 11.99 |  |  |  |  |  | 1.66 |  |  |  |  |  | 16.6 | 4 | 0 | inhibition at 2 µM [1, 14]: 89.2%; inhibition at 2 µM [1, 15]: 89.3%; inhibition at 2 µM [1, 16]: 88%; inhibition at 2 µM [1, 17]: 76%; inhibition at 2 µM [1, 18]: 104%; inhibition at 2 µM [2, 19]: 10%; inhibition at 2 µM [2, 20]: 16.9%; inhibition at 2 µM [2, 21]: 9.1%; inhibition at 2 µM [2, 22]: -0.43%; inhibition at 2 µM [2, 23]: 14.6% |
|  |  | 6.49 | CC(C#N)Cc1ccc(-c2cnc(N)c3cc(-c4ccnc(N)n4)ccc23)cc1 (stereo not shown) [TCMDC-134547] | 7.45 |  |  |  |  |  | 0.24 |  |  |  |  |  | 2.39 | 4 | 0 | Average inhibition male (%) [1, 24]: 85.1%; % inhibition male (individual replicates) R1 ([1]; PfDGFA at 2µM, replicate R1): 91.7%; % inhibition male (individual replicates) R3 ([1]; PfDGFA at 2µM, replicate R3): 80.2%; % inhibition male (individual replicates) R4 ([1]; PfDGFA at 2µM, replicate R4): 74.9%; Average inhibition female (%) [2, 24]: 0.03%; % inhibition female (individual replicates) R1 ([2]; PfDGFA at 2µM, replicate R1): 9.4%; % inhibition female (individual replicates) R3 ([2]; PfDGFA at 2µM, replicate R3): -8.0%; % inhibition female (individual replicates) R4 ([2]; PfDGFA at 2µM, replicate R4): 0.7% |
